From BindingDB's records for doi:10.1016/j.chembiol.2009.01.006 (Johns Hopkins School of Medicine, 2009)

molecular target: T1, Methionine aminopeptidase (Plasmodium falciparum Santa Lucia, UniProt W7G645); experiment: Enzyme Inhibiton Assay
T1 sequence (W7G645 whole entry): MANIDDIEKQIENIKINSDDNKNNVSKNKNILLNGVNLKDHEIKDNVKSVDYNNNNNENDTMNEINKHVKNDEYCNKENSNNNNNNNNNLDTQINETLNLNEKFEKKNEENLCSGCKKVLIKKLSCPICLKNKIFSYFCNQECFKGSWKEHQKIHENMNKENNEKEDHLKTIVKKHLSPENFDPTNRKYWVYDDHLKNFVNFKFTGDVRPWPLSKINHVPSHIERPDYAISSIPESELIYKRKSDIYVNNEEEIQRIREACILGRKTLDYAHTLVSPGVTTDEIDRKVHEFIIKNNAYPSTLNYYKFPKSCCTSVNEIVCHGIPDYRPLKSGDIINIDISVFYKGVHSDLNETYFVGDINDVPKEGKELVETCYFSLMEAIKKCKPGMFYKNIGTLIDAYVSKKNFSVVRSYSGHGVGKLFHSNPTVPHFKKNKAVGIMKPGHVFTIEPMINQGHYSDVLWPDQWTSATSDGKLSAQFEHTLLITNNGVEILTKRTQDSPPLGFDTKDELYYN
From the text: (§1) Enzyme affinity assay using Fumarranol analogs with plasmodium falciparum methionine aminopeptidases (PfMetAPs).

Question: Which IC50 does the source give for CO[C@@H]1[C@H](OC(=O)NC(=O)CCl)CC[C@]2(CO2)[C@H]1[C@@]1(C)O[C@@H]1CC=C(C)C [(3R,4S,5S,6R)-5-methoxy-4-[(2R,3R)-2-methyl-3-(3-methylbut-2-en-1-yl)oxiran-2-yl]-1-oxaspiro[2.5]octan-6-yl N-(2-chloroacetyl)carbamate] here?
Answer: The IC50 was over 300 µM.

molecular target: Methionine aminopeptidase 2 (Plasmodium falciparum, UniProt Q8TA23); experiment: Enzyme Inhibiton Assay
From the text: as §1

Chain of Methionine aminopeptidase 2 (Q8TA23 whole entry): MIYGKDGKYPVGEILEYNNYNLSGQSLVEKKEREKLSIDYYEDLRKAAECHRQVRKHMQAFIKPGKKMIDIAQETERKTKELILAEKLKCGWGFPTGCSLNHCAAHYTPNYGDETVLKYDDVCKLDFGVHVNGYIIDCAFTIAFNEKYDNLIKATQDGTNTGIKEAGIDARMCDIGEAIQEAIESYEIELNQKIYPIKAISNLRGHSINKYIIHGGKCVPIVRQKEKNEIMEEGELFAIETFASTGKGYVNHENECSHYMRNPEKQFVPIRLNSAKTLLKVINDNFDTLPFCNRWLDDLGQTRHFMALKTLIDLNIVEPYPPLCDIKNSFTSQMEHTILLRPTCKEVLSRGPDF

Question: For CO[C@@H]1[C@H](OC(=O)NC(=O)CCl)CC[C@]2(CO2)[C@H]1[C@@]1(C)O[C@@H]1CC=C(C)C [(3R,4S,5S,6R)-5-methoxy-4-[(2R,3R)-2-methyl-3-(3-methylbut-2-en-1-yl)oxiran-2-yl]-1-oxaspiro[2.5]octan-6-yl N-(2-chloroacetyl)carbamate], which IC50 is on record?
Answer: Its IC50 is 2 µM.

Question: Which IC50 does the source give for CO[C@]12C(=O)CC[C@@]1(CBr)C2[C@@]1(C)O[C@@H]1CC=C(C)C (some centres not stated) [Fumarranol Analog, 6] here?
Answer: Its IC50 is over 500 µM.

Question: For CO[C@]12C(=O)CC[C@@]1(C=O)C2[C@@]1(C)O[C@@H]1CC=C(C)C (some centres not stated) [Fumarranol Analog, 7], which IC50 is on record?
Answer: The IC50 was over 500 µM.

Question: For CO[C@]12C(=O)CC[C@@]1(CO)C2/C(C)=C/CC=C(C)C (some centres not stated) [Fumarranol Analog, 8], which IC50 is on record?
Answer: The IC50 was over 500 µM.

Question: With CO[C@]12C(=O)/C(=C/c3ccco3)C[C@@]1(CO)C2[C@@]1(C)O[C@@H]1CC=C(C)C (some centres not stated) [Fumarranol Analog, 9] as the compound, how does the IC50 read?
Answer: Its IC50 is over 500 µM.

Question: CO[C@@]12C([C@@]3(C)O[C@@H]3CC=C(C)C)[C@]1(CO)CC[C@H]2O (some centres not stated) [Fumarranol Analog, 10] was tested. Which IC50 did it give?
Answer: Its IC50 is over 500 µM.
